From patent US9497963B2, “Methods and compositions for control of gypsy moth, Lymantria dispar” (Simon Fraser University, priority 2008, dated 2016) come the findings set out here.

The inhibition is the change of the read-out against control, counted positive when it falls.

Set-up in all cases: species or system Lymantria dispar
Test [1] has as its system male gypsy moth antenna. Put plainly: Coupled gas chromatographic-electroantennographic detection (GC-EAD). The settings on record: EAD peak size and shape (sharp/broad). Summed up:
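GC column effluent split between flame ionization detector and an excised male moth antenna held between saline-filled glass capillary electrodes, tip removed, in a warm air stream. Antennal potentials assigned to compounds by matching retention times with FID peaks.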

Test [2] has as its system response of L. dispar antennae to (+)-disparlure. Put plainly: Competitive electroantennogram (EAG) screen, inhibition of response to (+)-disparlure (Example 4). The settings on record: Lymantria dispar, means ± S.E.; for inhibition at 0.001 mg: dose 1 μg on cartridge; for inhibition at 0.01 mg: dose 10 μg on cartridge; for inhibition at 0.1 mg: dose 100 μg on cartridge. How it is done: In this assay, libraries and individual compounds are tested for their ability to inhibit the antennal response to the sex attractant pheromone of the gypsy moth, (7R,8S) 2-methyl-7,8-epoxyoctadecane, also known as (+)-disparlure. The controls consisted of a puff of clean air (negative) or of air passed over a cartridge impregnated with (+)-disparlure (100 ng) (positive). The treatments consisted of 100 ng of (+)-disparlure in combination with a compound or library at 1, 10 or 100 μg, on a cartridge over which the air puff was passed. The small arrows above the trace denote the times where the air was puffed over the antenna.
For some compounds, such as the para Compounds 2c{n}, 2c{n,n} and libraries 3c{n,1-5}, EAG competitive assays were performed to investigate whether the diethers inhibit the response of L. dispar antennae to the main component of the sex attractant pheromone cis-(7R,8S)-epoxy-2-methyloctadecane [(+)-disparlure] (FIG. 4). For EAGs a male moth antenna was mounted and placed in front of a stimulus-delivery glass tubing (160×5 mm ID) with a side orifice (2 mm diam) near (2 cm) the distal opening. The tubing was connected to one port of an apparatus (Stimulus Controller CS-05, Syntech Research and Equipment, NL-1200BM Hilversum, The Netherlands) that generated a constant stream of clean air (300 ml/min). The second port of the apparatus was connected to a Pasteur pipette inserted through the side orifice of the stimulus-delivery tubing. The test stimulus was applied to a disc of Whatman #1 filter paper inside the Pasteur pipette and was discharged through a 0.3-sec pulse of air (600 ml/min) Receptor potentials of the antennae in response to test stimuli were recorded with a Syntech IDAC probe, amplifier and interfaced board, and were analyzed with EAG Syntech Software Version 2.4 (1996) Inhibition (%) was calculated as: % inhibition=(Dd−Ds)/Dd×100 (eq. 1)
Where Dd is the depolarization observed with pure disparlure (corrected for clean air background) and Ds is the depolarization with disparlure+sample. See FIG. 4 for a representative EAG inhibition assay trace.

The test system of test [3] is male gypsy moth antenna response to pheromone (+)-1. As to the kind of experiment: EAG short-term (STI) and long-term (LTI) inhibition of pheromone signaling (Example 5). The settings on record: for inhibition at 0.001 mg / inhibition at 0.01 mg / inhibition at 0.1 mg / inhibition at 100 µg, 0.1 mg: Lymantria dispar, mean ± S.E.; for inhibition at 0.001 mg: mixed plume (+)-1 100 ng + compound 1 μg; for inhibition at 0.001 mg / inhibition at 0.01 mg / inhibition at 0.1 mg: negative = enhancement, read-out: Activity (%): short-term inhibition (STI); for inhibition at 0.01 mg: mixed plume (+)-1 100 ng + compound 10 μg; for inhibition at 0.1 mg: mixed plume (+)-1 100 ng + compound 100 μg (puff v); for inhibition at 100 µg, 0.1 mg: pure (+)-1 100 ng plume following mixed plume with 100 μg compound, read-out: Activity (%): long-term inhibition (LTI). How it is done:
The puffs are numbered i-vi and were: i=air, ii=pure pheromone (+)-disparlure, (+)-1, (100 ng), iii-v=disparlure mixed with the test compound, the latter at three different doses, vi=pure (+)-1. Depolarizations from the resting potential are labeled d; hyperpolarizations seen during the recovery phase after a puff are labeled r. Subscripts refer to the puff number. FIG. 5A. Typical trace for compound 3c{2,3}. FIG. 5B. Typical trace for compound 3a{4,4}.
For other compounds, EAG traces were recorded as follows: a fully dislodged antenna from a male gypsy moth was mounted on the end of a reference electrode (a glass capillary with a silver wire, filled with buffered saline: 5 mM NaH2PO4, 10 mM Na2SO4, 4.5 mM KHCO3, 18 mM MgCl2, 4 mM CaCl2, 6 mM KCl, the pH is adjusted to 6.8 using 5 mM Na2HPO4). The tip of the antenna was severed with microscissors and placed in the recording electrode, which was mounted on a micromanipulator. A constant stream of air, that had been purified (charcoal filter), was blown over the antenna at a rate of 300 mL/min. Test samples were delivered through a stimulus delivery tube with a side opening 2 cm from the distal opening. The proximal end of the delivery tube was connected to a controlled stimulus delivery apparatus (Stimulus controller CS-05 Syntech Research and Equipment, NL 1200BM, Hilversum, The Netherlands). The distal end of the delivery tube pointed at the antenna (1 cm from the antenna). The side opening was connected to a cartridge fashioned from a Pasteur pipette which contained a small filter paper (Whatman No. 1) with the stimulus. These pipette cartridges could be prepared a few days in advance and stored at −80° C. wrapped in Al foil and in sealable plastic bags. Sample cartridges were mounted once they had reached room temperature. The stimulus delivery apparatus delivered a second stream of air (a puff) through the Pasteur pipette at a velocity of 600 mL/min, at a specified point in time, for 0.3 s. Receptor potentials of the antennae in response to test stimuli were recorded with a Syntech IDAC probe, amplifier and interfaced board, and were analyzed with EAG Syntech Software Version 2.4 (1996). See FIG. 4 for a representative EAG trace. The EAG traces were evaluated as follows (see FIG. 5).
The net depolarizations, d(net) (in mV), of puffs ii-vi,d(sample), (corrected for the depolarization with clean air, d(air)) d(net)=d(sample)−d(air) (Eq. 1)
The percentage short-term inhibition for each compound (STI(compound)) of puffs iii-v, relative to the first pure pheromone puff (ii) STI(compound)=100×(d(net)(ii)−d(net)(compound))/d(net)(ii) (Eq. 2)
c) the percentage long-term inhibition for each compound (LTI(compound)) of the pure pheromone puff that followed the last mixed puff (vi) relative to the first pure pheromone puff (ii) LTI(compound)=100×(d(net)(ii)−d(net)(vi))/d(net)(ii) (Eq. 3)
The compounds we tested gave weak or no olfactory responses by themselves in electroantennogram (EAG) experiments. The EAG trace reflects the change in the potential across the antenna when an air puff with an odorant is passed over the antenna. To understand the agonistic or antagonistic effect of the compounds on pheromone responses by male moth antennae, four types of EAG experiment were conducted. First, the response of the antenna elicited by a stimulus of pure (+)-1 was compared to the responses elicited by blends of (+)-1 with the test compound (FIG. 5). […] This effect was termed short-term inhibition (STI). […] Second, the time decay and dose responses for LTI activities were studied. Third, the strongest inhibitors were tested for their ability to cause LTI by themselves.
This experiment explored the agonistic or antagonistic activity of the synthetic aromatic compounds (Scheme 1 and eugenol and alkyl eugenols) with the gypsy moth pheromone (+)-1. […]

In test [4] the test system is L. dispar PBP 1. Put plainly: Pheromone-binding protein (PBP) ligand binding assay, PBP1. The method, then: (§1) A. The protein and ligand are incubated in buffer overnight. B. For half of the incubation mixture, the free ligand (L) is separated from the protein-bound ligand (P.L) by size-exclusion chromatography on P2 Gel (BioRad, exclusion limit 2000 Da). The protein elutes from the small column bed, with its ligand bound (see Examples and […] et al. 2000; Staddon and Everton 1980), while the free ligand is retained on the column ([…] et al. 2000). C. […] The extract from the filtrate (B) contains the protein-bound ligand and the extract from the incubation mixture (A) contains all the ligand (bound and free) present in the aqueous phase. The extracts are analyzed by GC-MS, to obtain values for total ligand in solution (L+P.L) and for protein-bound ligand (P.L). These can then be used to calculate % bound (Table 3). These assays were performed as described in FIG. 3 and as follows: L. dispar PBP 1 or PBP 2 was incubated with the test compound or mini-library. The PBP and the ligand(s) (L) were left to equilibrate (eq 2) overnight. The non-bound ligand was then separated from the protein-bound material (PBP.L) by size-exclusion chromatography. By determining the total ligand in solution at equilibrium (eq. 3) and the protein-bound ligand, it is possible to estimate the percentage of ligand bound to the protein at equilibrium (eq. 4). […] This binding assay has been validated extensively in previous studies ([…] et al. 2000). The components of each mini-library separated cleanly by GC, so it was possible to monitor binding of individual components. PBP+L⇄PBP·L (eq. 2) [L]tot=[L]+[PBP·L] (eq. 3) % bound=100×[PBP·L]/[L]tot (eq. 4) Results: The members of each mini-library separated cleanly by GC, therefore it was possible to monitor binding of individual members to PBP1 or PBP2, the two known PBPs in the gypsy moth, by extraction from the aqueous incubation mixture, followed by GC analysis of the extract (FIG. 3).

The test system of test [5] is L. dispar PBP 2. Put plainly: Pheromone-binding protein (PBP) ligand binding assay, PBP2. How it is done: as §1
The mark [6] stands for this setting: member tested within library 3c{1, 1-5}.
[7] abbreviates: member tested within library 3c{2, 1-5}.
The mark [8] stands for this setting: member tested within library 3c{4, 1-5}.
The mark [9] stands for this setting: member tested within library 3c{5, 1-5}.
Setting [10] is: tested as single compound, means ± S.E., 4 replicates.

On to `COc1ccc(O)cc1` [2c{1}, 4-Methoxy phenol], for which the GC-EAD activity entry in test [1] is “None”. Further, in test [2], the inhibition at 0.001 mg was 10 ± 5%, the inhibition at 0.01 mg came out at 55 ± 11% and the inhibition at 0.1 mg came to 43 ± 12%. Moreover, in test [3], the inhibition at 0.001 mg was found to be 8 ± 12%; the inhibition at 0.01 mg stood at 21 ± 20%; the inhibition at 0.1 mg was -16 ± 25%; the inhibition at 100 µg, 0.1 mg amounted to 10 ± 7%.
Turning to `CCOc1ccc(O)cc1` [2c{2}, 4-Ethoxy phenol], the GC-EAD activity entry in test [1] is on record as “None”. Moreover, in test [2], the inhibition at 0.001 mg is 49 ± 10%, the inhibition at 0.01 mg came out at 64 ± 9% and the inhibition at 0.1 mg is 45 ± 8%. In test [3], the inhibition at 0.001 mg is -3 ± 4%; the inhibition at 0.01 mg came to 55 ± 5%; the inhibition at 0.1 mg amounted to 47 ± 5%; the inhibition at 100 µg, 0.1 mg amounted to 7 ± 4%.
Turning to `CCCOc1ccc(O)cc1` [2c{3}, 4-Propoxy phenol], the GC-EAD activity entry in test [1] is reported as “None”. Besides, in test [2], the inhibition at 0.001 mg was found to be 17 ± 14%, the inhibition at 0.01 mg is 43 ± 14% and the inhibition at 0.1 mg came out at 35 ± 12%. For the same molecule, in test [3], the inhibition at 0.001 mg was 7 ± 31%; the inhibition at 0.01 mg worked out at 29 ± 34%; the inhibition at 0.1 mg turned out to be 38 ± 12%; the inhibition at 100 µg, 0.1 mg was -8 ± 7%.
`CC(C)CCOc1ccc(O)cc1` [2c{5}, 4-(3-Methyl-butyloxy) phenol]: the GC-EAD activity result in test [1] is recorded as “None”. Further, in test [2], the inhibition at 0.001 mg was found to be 38 ± 17%, the inhibition at 0.01 mg came out at 38 ± 27% and the inhibition at 0.1 mg is 19 ± 20%. For the same molecule, in test [3], the “short-term effect on antennal pheromone response (in words)” value was “antagonistic”, the inhibition at 0.001 mg worked out at 47 ± 14%, the inhibition at 0.01 mg was determined as 77 ± 7% and the inhibition at 0.1 mg was 49 ± 7%. In addition, in test [3], the inhibition at 100 µg, 0.1 mg was 2 ± 4%.
As for `CCOc1ccc(OC)cc1` [3c{1,2}, 1-ethoxy-4-methoxy benzene], the GC-EAD activity entry in test [1] was “++ sharp”. Moreover, the “PBP1 (% bound)” value in test [4] (setting [6]) is recorded as 15 ± 0.4%; in test [4] (setting [7]), 30 ± 0.2%. Moreover, the “PBP2 (% bound)” value worked out at 12 ± 1.5% in test [5] (setting [6]) and 40 ± 0.1% in test [5] (setting [7]).
On to `CCCCOc1ccc(OC)cc1` [3c{1,4}, 1-butoxy-4-methoxy benzene], for which, in test [1], the GC-EAD activity entry was “None”. For the same molecule, in test [4] (setting [8]), the “PBP1 (% bound)” value was 20 ± 0.4%.
Consider `COc1ccc(OCCC(C)C)cc1` [3c{1,5}, 1-methoxy-4-(3-methyl-butyloxy) benzene], for which, in test [1], the GC-EAD activity entry is given as “None”. The “PBP1 (% bound)” value in test [4] (setting [6]) was 1 ± 0.7%; in test [4] (setting [9]) it was 7 ± 0.1%. In addition, the “PBP2 (% bound)” value is 2 ± 2.5% in test [5] (setting [6]) and 5 ± 0.1% in test [5] (setting [9]).
On to `CCCCOc1ccc(OCC)cc1` [3c{2,4}, 1-butoxy-4-ethoxy benzene], for which, in test [1], the GC-EAD activity entry is recorded as “None”. The “PBP1 (% bound)” value in test [4] (setting [8]) is 10 ± 0.4%.
Consider `CCCCOc1ccc(OCCC)cc1` [3c{3,4}, 1-butoxy-4-propoxy benzene], for which the GC-EAD activity entry in test [1] is “None”. The “PBP1 (% bound)” value in test [4] (setting [8]) was found to be 4 ± 0.3%. In test [3], the inhibition at 0.001 mg is -11 ± 18%; the inhibition at 0.01 mg was -90 ± 23%; the inhibition at 0.1 mg is -180 ± 26%; the inhibition at 100 µg, 0.1 mg came to 22 ± 12%.
Consider `CCCCOc1ccc(OCCCC)cc1` [3c{4,4}, 1,4-Dibutoxy benzene], for which, in test [4] (setting [10]), the “PBP1 (% bound)” value came to 4 ± 0.1%. The “PBP2 (% bound)” value in test [5] (setting [10]) is given as 8 ± 0.3%. Also, in test [3], the inhibition at 0.001 mg was -107 ± 41%; the inhibition at 0.01 mg is -90 ± 57%; the inhibition at 100 µg, 0.1 mg was 7 ± 14%.
Consider `CCCCOc1ccc(OCCC(C)C)cc1` [3c{4,5}, 1-butoxy-4-(3-methyl-butyloxy) benzene], for which the GC-EAD activity entry in test [1] was “None”. For the same molecule, the “PBP1 (% bound)” value in test [4] (setting [8]) was 4 ± 0.4%.
